In patent US7960436B2, “Substituted arylamino-1,2,3,4-tetrahydro naphthalenes and-2,3-dihydro-1H-indenes as potassium channel modulators” (Valeant Pharmaceuticals International, priority 2006, dated 2011) one finds EC50 data, which are given here for seven compounds.

In the experiment the test system is potassium ion channels. In words: Rubidium (Rb+) efflux assay in NGF-differentiated PC-12 cells. The experiment is classed as cell-based. The note with it: depolarization buffer with 15 mM KCl, 10 min at room temperature, read-out: EC50 (compound's concentration for 50% of maximal Rb+ efflux). As to the method: Several typical compounds of this invention were assayed as potassium channel modulators by measuring rhubidium release.
Methods: PC-12 cells were grown at 37° C. and 5% CO2 in DMEM/F12 Medium supplemented with 10% horse serum, 5% fetal bovine serum, 2 mM glutamine, 100 U/ml penicillin, 100 U/ml streptomycin. They were plated in poly-D-lysine-coated 96-well cell culture microplates at a density of 40,000 cells/well and differentiated with 100 ng/ml NGF-7s for 2-5 days. For the assay, the medium was aspirated and the cells were washed once with 0.2 ml in wash buffer (25 mM HEPES, pH 7.4, 150 mM NaCl, 1 mM MgCl2, 0.8 mM NaH2PO4, 2 mM CaCl2). The cells were then loaded with 0.2 ml Rb^+ loading buffer (wash buffer plus 5.4 mM […], 5 mM glucose) and incubated at 37° C. for 2 h. Attached cells were quickly washed three times with buffer (same as Rb^+ loading buffer, but containing 5.4 mM KCl instead of RbCl) to remove extracellular Rb^+. Immediately following the wash, 0.2 ml of depolarization buffer (wash buffer plus 15 mM KCl) with or without compounds was added to the cells to activate efflux of potassium ion channels. After incubation for 10 min at room temperature, the supernatant was carefully removed and collected. Cells were lysed by the addition of 0.2 ml of lysis buffer (depolarization buffer plus 0.1% Triton X-100) and the cell lysates were also collected. If collected samples were not immediately analyzed for Rb^+ contents by atomic absorption spectroscopy (see below), they were stored at 4° C. without any negative effects on subsequent Rb^+ analysis.
The concentration of Rb^+ in the supernatants (Rb^+Sup) and cell lysates (Rb^+Lys) was quantified using an ICR8000 flame atomic absorption spectrometer (Aurora Biomed Inc., Vancouver, B.C.) under conditions defined by the manufacturer. One 0.05 ml samples were processed automatically from microtiter plates by dilution with an equal volume of Rb^+ sample analysis buffer and injection into an air-acetylene flame. The amount of Rb^+ in the sample was measured by absorption at 780 nm using a hollow cathode lamp as light source and a PMT detector. A calibration curve covering the range 0-5 mg/L Rb^+ in sample analysis buffer was generated with each set of plates. The percent Rb^+ efflux (F) was defined by F=[Rb^+Sup/(Rb^+Sup+Rb^+Lys)]×100% The effect (E) of a compound was defined by: E=[(Fc−Fb)/(Fs−Fb)]×100% where the Fc is the efflux in the presence of compound in depolarization buffer, Fb is the efflux in basal buffer, and Fs is the efflux in depolarization buffer, and. The effect (E) and compound concentration relationship was plotted to calculate an EC50 value, a compound's concentration for 50% of maximal Rb^+ efflux.

In the case of `Nc1cc2c(cc1NC(=O)CCC1CCCC1)CCC2Nc1ccc(F)cc1` (stereo not shown), the EC50 was under 500 nM.
In the case of `CC(C)(C)CC(=O)Nc1cc2c(cc1N)C(Nc1ccc(C(F)(F)F)cc1)CC2` (stereo not shown) it was under 500 nM; in that of `Nc1cc2c(cc1NC(=O)CCC1CCCC1)CCC2Nc1ccc(C(F)(F)F)cc1` (stereo not shown), under 500 nM; in that of `CCOC(=O)Nc1ccc2c(c1N)CCC2Nc1ccc(F)cc1` (stereo not shown), 500 to 5000 nM.
The value for `CCOC(=O)Nc1cc2c(cc1N)C(Nc1ccc(C(F)(F)F)cc1)CCC2` (stereo not shown) was over 5000 nM; that for `CCOC(=O)Nc1ccc2c(c1N)CCCC2Nc1ccc(C(F)(F)F)cc1` (stereo not shown) was over 5000 nM; that for `CC(C)(C)CC(=O)Nc1cc2c(cc1N)C(Nc1ccc(F)cc1)CC2` (stereo not shown) was 500 to 5000 nM.
